A short description of one data set: Solubility at pH 7.4. Format: physicochemical.
In data set [1] the test system is ovarian carcinoma cell line, OVCAR3. The data set can be described thus: Cancer cell growth inhibition by drug film, powder or DMSO solution. Particulars: for OVCAR3 cancer cells viability: after 48 hours, nominal 5 μM. It is filed as cell-based. How it is done:
The printed films of BAY 11-7082 are tested by applying OVCAR3 cells solution directly onto the film, as compared to the BAY 11-7082 drug in powder form dissolved in DMSO.
See FIG. 11 showing drug application in a film form.

The next data set in a line: physchem. Particulars: 20 °C. How it is done: First, solubilities of the different compounds in corresponding solvents are measured at temperature 20±1° C.
A short description of data set [2]: Initial dissolution rate of printed film versus loose powder (USP 2 stirring apparatus, UV-VIS). Format: physicochemical. From the text:
When comparing dissolution from powder form and film form for the same material and same crystal structure, D, V, Cs are constant and initial dissolution rate will be proportional to A/δ. δ and A are constant for dissolution from film since area of the film is not changing during dissolution. In a powder, δ and A are changing since particles size and shape is changing. […] Therefore only the initial rate can be compared between powder and a film.
In order to compare film form versus original powder dissolution behavior, loose powders with same weight as films are introduced into 10 ml solution without any prior treatment and stirred using stirring rod with same shape and diameter as one that is used for films. All experiments are performed at temperature […].
(§1) For dissolution rate experiments a USP 2 stirring apparatus with stirring speed of 100 rpm is used. Concentration is monitored using UV-VIS spectrometer equipped with dipping probe. As an example glass slides substrates with deposited 9 mm diameter drug films are used. Films weights are in the range of 5-80 μg. First, intrinsic dissolution rate (IDR) of films is studied and compared it to dissolution of compressed powder in form of 1.57 mm diameter pellets. IDR is defined as Equation (4): […]

Data set [3] in a line: Intrinsic dissolution rate (IDR) of films compared with compressed powder pellets. Format: physicochemical. Particulars: comparable to compressed pellets, about 10 ml, 20±1° C., solvent per compound as. How it is done: as §1
In this case (dm/dt)max is maximum slope in a dissolution curve evaluated at the start of dissolution process (m—dissolved solute mass). Glass substrates with deposited films are attached to a stirring rod having same diameter as compressed pellets rod (20 mm), assuring that hydrodynamic boundary layer thickness is same for compressed powder and deposited film. Solution volume remains constant in all experiments, about 10 ml, and temperature is 20±1° C.

Data set [4] is described as follows: Surface area of printed film and of powder. Format: physicochemical.
Data set [5] deals with breast carcinoma cell line, MCF7. The data set can be described thus: Cancer cell growth inhibition by drug film, powder or DMSO solution. The note with it: after 48 hours, nominal 5 μM. It is filed as cell-based.
Setting [6] is: powder form dissolved in growth medium.

≈ marks a conversion by molar mass, not a printed value.

Usually solubility stands for the dissolved amount per volume that the medium holds. Read a low solubility as little dissolved substance.

With `Cc1ccc(S(=O)(=O)/C=C/C#N)cc1` [BAY 11-7082, (E)-3-(4-Methylphenylsulfonyl)-2-propenenitrile], the solubility in the data set “Solubility at pH 7.4” worked out at 29.25 ± 0.05 µg/mL (≈ 141 µM). The “efficacy / viability with film form drug compared with drug dissolved in DMSO” value in data set [1] (OVCAR3 cells applied directly onto the film) was “No significant difference in efficacy”.

Molecule `O=C1OC2(c3ccc(O)cc3Oc3cc(O)ccc32)c2ccccc21` [fluorescein] gave a solubility in the data set “physchem” (water) of 10 ± 0.5 µg/mL (≈ 30.1 µM).

As for `CC(C)Cc1ccc(C(C)C(=O)O)cc1` (stereo not drawn) [ibuprofen], the solubility in “physchem” (pH 1.2, simulated gastric fluid) was 22.5 ± 0.5 µg/mL (≈ 109 µM). The “enhancement of initial dissolution rate in film versus loose powder” value in data set [2] (aqueous HCl buffer pH 1.2, FIG. 10(b), 19±1° C.) is “about 30 times”. Moreover, the “initial dissolution rate, printed film relative to powder” value in data set [2] (ibuprofen in buffer HCl 1.3) is reported as “about 10 times higher”. For the same molecule, the initial dissolution rate in data set [2] (ibuprofen in buffer HCl 1.3, 30 μg of powder) came to 0.0004 µg/mL/s; in data set [2] (ibuprofen in buffer HCl 1.3, printed film) it was 0.04 µg/mL/s. Further, in data set [3], the “intrinsic dissolution rate (IDR)” value is listed as 1×10^−3±3×10^−4 μg sec^−1 mm^−2. In addition, the “film surface area relative to powder surface area” value in data set [4] is “about 5 times higher”.

As for `CC/C(=C(\c1ccccc1)c1ccc(OCCN(C)C)cc1)c1ccccc1` [tamoxifen], the figures for the “MCF7 cancer cells viability” value in data set [5] (film form) and in data set [5] (setting [6]) were 58% and 79%, respectively. Also, the “intrinsic dissolution rate (IDR)” value in data set [3] was 6×10^−4±1×10^−4 μg sec^−1 mm^−2. Moreover, the “OVCAR3 cancer cells viability” value in data set [1] (film form) is listed as 44%; in data set [1] (setting [6]), 68%.

Source of the values: patent US20230044649A1, “METHODS TO ENHANCE BIOAVAVAILABILITY OF ORGANIC SMALL MOLECULES AND DEPOSITED FILMS MADE THEREFROM” (THE REGENTS OF THE UNIVERSITY OF MICHIGAN, priority 2015, published 2023).
